Measurements from patent US20100004469A1, “ANTIMICROBIAL AGENTS AND MICROBICIDAL AGENTS” (KABUSHIKI KAISHA TOYOTA JIDOSHOKKI, priority 2006, published 2010).

Legend:
Assay type in all cases: cell-based
[1] = test system: Staphylococcus aureus subsp. aureus (NBRC 13276); assay: Test for antimicrobial activity, viable cell count (Example 1); conditions: room temperature
Experimental: (§1) After said strains were cultured in SCD agar medium at 35±2° C. for 18 to 24 hours, inocula were prepared by suspending the cultured stains in sterile purified water and adjusting the turbidity so as to correspond with No. 1 MacFarland. Using agar plates, the concentrations of the inocula were measured according to the agar plate mixed dilution method (Table 1). 3 mL of each of the 10%, 1.0% and 0.1% aqueous solutions of the test compound, and of sterile purified water (control) were prepared (n=1). 0.03 mL of said inocula was inoculated into each of the test solutions at room temperature. Immediately after, 15 minutes after, and 180 minutes after the inoculations, 0.5 mL of each of the test solutions was added to 49.5 mL of a sterile phosphate buffer (Pro-media MV2-1000, manufactured by ELMEX), and mixed. A ten fold dilution series of each of the mixtures was constructed. Then, the number of the viable cells therein were measured, and then it was converted to the number of viable cells per 1 mL of the test solutions or control. The number of viable cell was measured according to “Viable cell count; the agar plate mixed dilution method in the Japanese Pharmacopoeia, 14th revised edition”.

[2] = test system: Salmonella Enteritidis (NBRC 3313); assay: as above; conditions: room temperature
Experimental: as §1

[3] = test system: Escherichia coli (NBRC 3972); assay: as above; conditions: room temperature
Experimental: as §1

[4] = test system: Staphylococcus aureus subsp. aureus (NBRC 13276); assay: Test for antimicrobial activity with neutralization, viable cell count (Example 2); conditions: 20% aqueous solution, neutralized
Experimental: (§2) After said strains were cultured in SCD agar medium at 35±2° C. for 18 to 24 hours, inocula were prepared by suspending the stains in sterile purified water and adjusting the turbidity so as to correspond with No. 1 MacFarland. Using agar plate, the concentrations of the inocula were measured according to the agar plate mixed dilution method (Table 3). 3 mL of each of 20% aqueous solution of the test compound, a stock solution of a comparative compound and sterile water, (control) was prepared (n=1). 0.03 mL of said inocula was inoculated into each of the test solutions at a room temperature. Immediately after, 15 minutes after and 180 minutes after the inoculations, neutralization was performed under the following conditions. 0.5 mL of the test solution was added to 4.5 mL of sterile sodium hydrate solution at the concentration of 0.25 mol/L (sodium hydrate; manufactured by Wako Pure Chemical Industries, Ltd.), and mixed. Then, 45 mL of a sterile phosphate buffer (Pro-media MV2-1000, manufactured by ELMEX) was immediately added and mixed. 0.5 mL of the test solution was added to 4.5 mL of sterile sodium hydrate solution at the concentration of 2.0 mol/L, and mixed. Then, 45 mL of a sterile phosphate buffer was immediately added and mixed. A ten-fold dilution series of each of the neutralization solution was prepared. Then, the number of the viable cells therein was measured and it was converted to the number of viable cells per 1 mL of the test solutions or control. The number of viable cell was measured according to “Viable cell count; the agar plate mixed dilution method in the Japanese Pharmacopoeia, 14th revised edition”.

[5] = test system: Salmonella Enteritidis (NBRC 3313); assay: as above; conditions: 20% aqueous solution, neutralized
Experimental: as §2

[6] = test system: Escherichia coli (NBRC 3972); assay: as above; conditions: 20% aqueous solution, neutralized
Experimental: as §2

O=C(O)c1cc(C(=O)O)oc(=O)c1 [test compound, 2H-pyran-2-on-4,6-dicarbonic acid]
<100 cfu/mL: number of viable cells, Measured 15 min. after inoculation ([1]; 0.1% aqueous solution) | number of viable cells, Measured 180 min. after inoculation ([1]; 0.1% aqueous solution) | number of viable cells, Measured 15 min. after inoculation ([1]; 1.0% aqueous solution) | number of viable cells, Measured 180 min. after inoculation ([1]; 1.0% aqueous solution) | number of viable cells, Measured 15 min. after inoculation ([1]; 10% aqueous solution) | number of viable cells, Measured 180 min. after inoculation ([1]; 10% aqueous solution) | number of viable cells, Measured immediately after inoculation ([1]; 10% aqueous solution) | number of viable cells, Measured 15 min. after inoculation ([2]; 0.1% aqueous solution) | number of viable cells, Measured 180 min. after inoculation ([2]; 0.1% aqueous solution) | number of viable cells, Measured 15 min. after inoculation ([2]; 1.0% aqueous solution) | number of viable cells, Measured 180 min. after inoculation ([2]; 1.0% aqueous solution) | number of viable cells, Measured immediately after inoculation ([2]; 1.0% aqueous solution) | number of viable cells, Measured 15 min. after inoculation ([2]; 10% aqueous solution) | number of viable cells, Measured 180 min. after inoculation ([2]; 10% aqueous solution) | number of viable cells, Measured immediately after inoculation ([2]; 10% aqueous solution) | number of viable cells, Measured 15 min. after inoculation ([3]; 0.1% aqueous solution) | number of viable cells, Measured 180 min. after inoculation ([3]; 0.1% aqueous solution) | number of viable cells, Measured 15 min. after inoculation ([3]; 1.0% aqueous solution) | number of viable cells, Measured 180 min. after inoculation ([3]; 1.0% aqueous solution) | number of viable cells, Measured immediately after inoculation ([3]; 1.0% aqueous solution) | number of viable cells, Measured 15 min. after inoculation ([3]; 10% aqueous solution) | number of viable cells, Measured 180 min. after inoculation ([3]; 10% aqueous solution) | number of viable cells, Measured immediately after inoculation ([3]; 10% aqueous solution) | number of viable cells, Measured 15 min. after inoculation ([4]; 15 min. after inoculation) | number of viable cells, Measured 180 min. after inoculation ([4]; 180 min. after inoculation) | number of viable cells, Measured immediately after inoculation ([4]; immediately after inoculation) | number of viable cells, Measured 15 min. after inoculation ([5]; 15 min. after inoculation) | number of viable cells, Measured 180 min. after inoculation ([5]; 180 min. after inoculation) | number of viable cells, Measured immediately after inoculation ([5]; immediately after inoculation) | number of viable cells, Measured 15 min. after inoculation ([6]; 15 min. after inoculation) | number of viable cells, Measured 180 min. after inoculation ([6]; 180 min. after inoculation) | number of viable cells, Measured immediately after inoculation ([6]; immediately after inoculation)
12,000 cfu/mL: number of viable cells, Measured immediately after inoculation ([2]; 0.1% aqueous solution)
11,000 cfu/mL: number of viable cells, Measured immediately after inoculation ([1]; 0.1% aqueous solution)
10,000 cfu/mL: number of viable cells, Measured immediately after inoculation ([3]; 0.1% aqueous solution)
5,000 cfu/mL: number of viable cells, Measured immediately after inoculation ([1]; 1.0% aqueous solution)
